Test results reported in BindingDB's records for patent US12454530 (Chiesi Farmaceutici, 2025).

Target: Lysophosphatidic acid receptor 1 (Homo sapiens, UniProt Q92633)
Experiment: In Vitro Assay
Procedure: CHO-hLPA1 cell lines are cultured in a humidified incubator at 5% CO2 in DMEM/F-12 (1:1) MIXTURE with 2 mM Glutamax, supplemented with 10% of Foetal Bovine Serum, 1 mM Sodium Pyruvate, 11 mM Hepes and 1× Penicillin/Streptomycin. […] Serial dilutions (1:3 or 1:4, 11 points CRC) of compounds are performed in 100% DMSO at 200× the final concentration. […] The final concentration of DMSO in the assay will be 0.5% in each well. Medium is removed by aspiration and cells are then incubated with 30 μl of a loading solution containing 5 μM of the cytoplasmic Ca2+ indicator Cal-520 AM in Assay Buffer containing 2.5 mM probenecid for 30 min at 37° C. incubator (cell loading). The loaded cell plates are transferred into the FLIPR instrument and calcium responses are monitored during the on-line addition protocols. For testing of compounds, after the cell loading, 10 μl/well of 4× antagonists' solution was added onto the cells. After 30 min pre-incubation (at 37° C.), 10 μl/well of 5× concentrated LPA EC80 was added and Ca2+ mobilization responses was followed during the on-line addition protocol. Intracellular peak fluorescence values subtracted by baseline fluorescence are exported and analysed to determine IC50 values, respectively.

Sequence of Lysophosphatidic acid receptor 1 (Q92633 whole entry): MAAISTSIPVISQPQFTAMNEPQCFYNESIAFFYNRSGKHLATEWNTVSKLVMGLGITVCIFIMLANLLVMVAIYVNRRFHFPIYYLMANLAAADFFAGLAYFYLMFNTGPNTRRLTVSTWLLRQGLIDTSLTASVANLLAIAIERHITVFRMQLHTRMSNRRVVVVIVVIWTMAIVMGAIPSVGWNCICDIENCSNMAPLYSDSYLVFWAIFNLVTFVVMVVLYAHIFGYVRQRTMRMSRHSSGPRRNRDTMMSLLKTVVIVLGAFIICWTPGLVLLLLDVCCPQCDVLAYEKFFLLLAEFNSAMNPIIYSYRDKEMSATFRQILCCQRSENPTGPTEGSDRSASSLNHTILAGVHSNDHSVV

How did the IC50 turn out when `Cc1ccccc1[C@@H](C)OC(=O)Nc1c(C)noc1-c1ccc(NC(=O)[C@H]2CCCC[C@@H]2C(=O)O)c(C)n1` [US12454530, Example 32] was run?
Its IC50 is < 50 nM.
